This passage reports IC50 results from US9580418B2, “Bicyclic aromatic carboxamide compounds useful as Pim kinase inhibitors” (Incyte Corporation, priority 2014, dated 2017).

The target of one test is Pim-1 (Homo sapiens (Human), UniProt P11309). Briefly: Pim-1 kinase assay (Pim enzyme assays, Example A). It counts as biochemical. The settings on record: 1 mM ATP, BAD peptide substrate; read-out: PIM1 IC50. Here is the method: (§1) Pim-1 and Pim-3 kinase assays-20 μL reactions were run in white 384 well polystyrene plates dotted with 0.8 μL compound/DMSO in the assay buffer (50 mM Tris, pH 7.5, 0.01% Tween-20, 5 mM mgCl2, 0.01% BSA, 5 mM DTT), containing 0.05 μM Biotin-labeled BAD peptide substrate (AnaSpec 62269), 1 mM ATP, and 2.5 pM (Pim-1, Invitrogen PV3503) or 1.25 pM (Pim-3, Millipore 14-738) enzyme for 1 h at 25° C. Reactions were stopped by addition of 10 μL STOP Buffer (150 mM Tris, pH=7.5, 150 mM NaCl, 75 mM EDTA, 0.01% Tween-20, 0.3% BSA,) supplemented with Phospho-Bad (Ser112) Antibody (Cell Signaling 9291) diluted 666-fold, and Streptavidin donor beads (PerkinElmer 6760002) along with Protein-A acceptor beads (PerkinElmer 6760137) at 15 μg/mL each. Supplementation of the STOP buffer with beads and stopping the reactions were done under reduced light. Prior to the stopping reactions STOP buffer with beads was preincubated for 1 h in the dark at room temperature. After stopping the reactions, plates were incubated for 1 h in the dark at room temperature before reading on a PHERAstar FS plate reader (BMG Labtech) under reduced light.
Chain of Pim-1 (P11309 whole entry): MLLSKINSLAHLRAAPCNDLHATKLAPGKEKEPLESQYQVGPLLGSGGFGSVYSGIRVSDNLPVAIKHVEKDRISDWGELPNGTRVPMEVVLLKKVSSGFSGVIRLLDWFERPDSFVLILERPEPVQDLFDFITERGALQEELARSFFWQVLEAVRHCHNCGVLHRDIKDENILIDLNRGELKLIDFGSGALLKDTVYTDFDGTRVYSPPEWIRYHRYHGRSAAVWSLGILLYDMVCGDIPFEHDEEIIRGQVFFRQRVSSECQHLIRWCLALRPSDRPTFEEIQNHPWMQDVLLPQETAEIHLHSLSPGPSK

A further test has as its target Pim-3 (Homo sapiens (Human), UniProt Q86V86). Nature of the test: Pim-3 kinase assay (Pim enzyme assays, Example A). The settings on record: 1 mM ATP, BAD peptide substrate; read-out: PIM3 IC50. It counts as biochemical. Here is the method: as §1
The test system of the next test is pBAD in KMS.12.BM cells. Nature of the test: Pim pBAD signaling assay in KMS.12.BM cells (Example B). As to conditions: Homo sapiens, 2.5 h incubation, pBAD ELISA. It counts as cell-based. Here is the method:
KG-1A cells are purchased from ATCC (Manassas, Va.) and KMS.12.BM cells are purchased from NIBIO, JCRB cell bank (Tokyo, Japan) and maintained in the culture mediums recommended, RPMI, 10% FBS and IMDM 20% FBS (Mediatech, Manassas, Va.) respectively. To measure the pBAD inhibitory activity of the compounds, both cell lines are plated with the culture medium (1×10^6/well/100 μL for KG1A and 4×10^5 cells/well/in 100 μL for KMS12BM) into 96-well V bottom polypropylene plates (Matrix, Thermo Fisher, USA) and incubated 30 min. at 37° C. to normalize cell signaling from handling. Test compounds are added at an appropriate concentration range and further incubated for 2.5 h for KMS.12.BM cells and 4 h for KG1-A cells. Plates are centrifuged at 2000 RPM for 10 min. and supernatants aspirated. 100 μL lysis buffer with protease inhibitors (Cell Signaling Technologies, Danver, Mass., Sigma, St Louis Mo., EMD, USA) is added to the pellets, mixed well and set on ice for 30 min. Lysates are frozen overnight at −80° C. To measure the pBAD activity, a Cell Signaling ELISA kit (Cell Signaling Path Scan phosphor pBAD ELISA) is utilized. 50 μL of the lysate is tested per the ELISA protocol and the data analysis is performed by software on a SpectrMax5 plate reader (Molecular Devices, Sunnyvale, Calif.). IC50 determination is performed by fitting the curve of percent inhibition versus the log of the inhibitor concentration using the GraphPad Prism 5.0 software.
(In an ELISA, binding on a coated surface is turned into a signal by an enzyme label.)

Another test has as its target Pim-2 (Homo sapiens (Human), UniProt Q9P1W9). Briefly: Pim-2 kinase assay (Pim enzyme assays, Example A). The test is classed as biochemical. As to conditions: 1 mM ATP, CREBtide peptide substrate; read-out: PIM2 IC50. Here is the method: Pim-2 kinase assay-20 μL reactions were run in white 384 well polystyrene plates dotted with 0.8 μL compound/DMSO in the assay buffer (50 mM Tris, pH 7.5, 0.01% Tween-20, 5 mM mgCl2, 0.01% BSA, 5 mM DTT), containing 0.05 μM Fluorescein-labeled CREBtide peptide substrate (Invitrogen PV3508), 1 mM ATP, and 1 nM enzyme (Invitrogen PV3649) for 2 h at 25° C. Reactions were stopped by addition of 10 μL TR-FRET Dilution Buffer (Invitrogen PV3574) with 30 mM EDTA and 1.5 nM LanthaScreen Tb-CREB pSer133 antibody (Invitrogen PV3566). After 30 min. incubation at room temperature, plates were read on a PHERAstar FS plate reader (BMG Labtech).

Chain of Pim-2 (Q9P1W9 whole entry): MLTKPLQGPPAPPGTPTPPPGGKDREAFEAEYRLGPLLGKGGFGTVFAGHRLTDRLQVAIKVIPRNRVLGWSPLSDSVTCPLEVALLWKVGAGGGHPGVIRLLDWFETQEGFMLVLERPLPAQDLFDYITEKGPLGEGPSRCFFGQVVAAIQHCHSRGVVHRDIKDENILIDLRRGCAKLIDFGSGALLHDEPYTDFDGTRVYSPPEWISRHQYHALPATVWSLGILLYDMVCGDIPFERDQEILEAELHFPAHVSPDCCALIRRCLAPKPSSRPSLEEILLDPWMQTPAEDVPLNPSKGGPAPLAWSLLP

For orientation: IC50 means the concentration needed to halve the response being measured. `COc1cc(F)c(-c2cnc3ccc(C(=O)Nc4cnccc4N4C[C@H](C)C[C@H](N)C4)nc3c2)c(F)c1` [Example 4, N-{4-[(3S,5R)-3-Amino-5-methylpiperidin-1-yl]pyridin-3-yl}-7-(2,6-difluoro-4-methoxyphenyl)-1,5-naphthyridine-2-carboxamide]: the IC50 is no more than 10 nM on Pim-1, no more than 10 nM at Pim-3, no more than 50 nM in the test with pBAD in KMS.12.BM cells and no more than 100 nM on Pim-2.

For `CC(C)c1cnc2ccc(C(=O)Nc3cnccc3N3C[C@H](C)C[C@H](N)C3)nc2c1` [Example 2, N-{4-[(3S,5R)-3-Amino-5-methylpiperidin-1-yl]pyridin-3-yl}-7-isopropyl-1,5-naphthyridine-2-carboxamide], the IC50 at Pim-1 is no more than 10 nM; on Pim-3 it was no more than 10 nM; in the test with pBAD in KMS.12.BM cells, no more than 50 nM; at Pim-2 it was no more than 100 nM.

Consider `C[C@@H]1C[C@H](N)CN(c2ccncc2NC(=O)c2ccc3ccc(-c4cnn(C)c4)cc3n2)C1` [Example 48, N-{4-[(3S,5R)-3-amino-5-methylpiperidin-1-yl]pyridin-3-yl}-7-(1-methyl-1H-pyrazol-4-yl)quinoline-2-carboxamide], for which the IC50 at Pim-1 is no more than 10 nM; on Pim-3 it was no more than 10 nM; in the test on pBAD in KMS.12.BM cells, no more than 50 nM; on Pim-2, no more than 100 nM.

Take `C[C@@H]1C[C@H](N)CN(c2ccncc2NC(=O)c2ccc3ccc(-c4ccccc4C#N)cc3n2)C1` [Example 49, N-{4-[(3S,5R)-3-Amino-5-methylpiperidin-1-yl]pyridin-3-yl}-7-(2-cyanophenyl)quinoline-2-carboxamide]: the IC50 was no more than 10 nM at Pim-1, no more than 10 nM on Pim-3, no more than 50 nM in the test on pBAD in KMS.12.BM cells and no more than 100 nM on Pim-2.

For the compound `C[C@H]1CN(c2ccncc2NC(=O)c2ccc3ccc(-c4ccc(N5CCOCC5)nc4)cc3n2)C[C@@H](N)[C@@H]1O` [Example 46, N-{4-[(3R,4R,5S)-3-Amino-4-hydroxy-5-methylpiperidin-1-yl]pyridin-3-yl}-7-(6-morpholin-4-ylpyridin-3-yl)quinoline-2-carboxamide], the IC50 on Pim-1 is no more than 10 nM; on Pim-3, no more than 10 nM; in the test on pBAD in KMS.12.BM cells, no more than 50 nM; at Pim-2, no more than 100 nM.

Take `C[C@H]1CN(c2ccncc2NC(=O)c2ccc3ccc(N4CC(C)(C)C4)cc3n2)C[C@@H](N)[C@@H]1O` [Example 32, N-{4-[(3R,4R,5S)-3-Amino-4-hydroxy-5-methylpiperidin-1-yl]pyridin-3-yl}-7-(3,3-dimethylazetidin-1-yl)quinoline-2-carboxamide]: the IC50 was no more than 10 nM at Pim-1, no more than 10 nM on Pim-3 and 100 to 1000 nM on Pim-2.

Regarding `C[C@@H]1C[C@H](N)CN(c2ccncc2NC(=O)c2ccc3ccc(N4CC(C)(C)C4)cc3n2)C1` [Example 33, N-{4-[(3S,5R)-3-Amino-5-methylpiperidin-1-yl]pyridin-3-yl}-7-(3,3-dimethylazetidin-1-yl)quinoline-2-carboxamide], the IC50 is no more than 10 nM on Pim-1, no more than 10 nM on Pim-3 and 1000 to 10000 nM at Pim-2.

As for `CCN1CCN(c2ccc3ccc(C(=O)Nc4cnccc4N4C[C@@H](N)[C@H](O)[C@@H](C)C4)nc3c2)CC1=O` [Example 22, N-{4-[(3R,4R,5S)-3-Amino-4-hydroxy-5-methylpiperidin-1-yl]pyridin-3-yl}-7-(4-ethyl-3-oxopiperazin-1-yl)quinoline-2-carboxamide], the IC50 on Pim-1 is no more than 10 nM; at Pim-3, no more than 10 nM; in the test on pBAD in KMS.12.BM cells, no more than 50 nM; on Pim-2, no more than 100 nM.

Consider `C[C@@H]1C[C@H](N)CN(c2ccncc2NC(=O)c2ccc3ccc(N4CCC(c5ccncc5)CC4)cc3n2)C1` [Example 21, N-{4-[(3S,5R)-3-Amino-5-methylpiperidin-1-yl]pyridin-3-yl}-7-(4-pyridin-4-ylpiperidin-1-yl)quinoline-2-carboxamide], for which the IC50 was no more than 10 nM at Pim-1, no more than 10 nM at Pim-3, 50 to 250 nM with pBAD in KMS.12.BM cells and 100 to 1000 nM at Pim-2.

As to `C[C@H]1CN(c2ccncc2NC(=O)c2ccc3ccc(N4CCOCC4)cc3n2)C[C@@H](N)[C@@H]1O` [Example 12, N-{4-[(3R,4R,5S)-3-Amino-4-hydroxy-5-methylpiperidin-1-yl]pyridin-3-yl}-7-morpholin-4-ylquinoline-2-carboxamide], the IC50 at Pim-1 was no more than 10 nM; at Pim-3, no more than 10 nM; in the test with pBAD in KMS.12.BM cells it was no more than 50 nM; on Pim-2, no more than 100 nM.

With `C[C@H]1CN(c2ccncc2NC(=O)c2ccc3ccc(C4CCOCC4)cc3n2)C[C@@H](N)[C@@H]1O` [Example 11, N-{4-[(3R,4R,5S)-3-Amino-4-hydroxy-5-methylpiperidin-1-yl]pyridin-3-yl}-7-(tetrahydro-2H-pyran-4-yl)quinoline-2-carboxamide], the IC50 at Pim-1 was no more than 10 nM; at Pim-3, no more than 10 nM; in the test on pBAD in KMS.12.BM cells, 50 to 250 nM; on Pim-2, 100 to 1000 nM.

Turning to `C[C@@H]1C[C@H](N)CN(c2ccncc2NC(=O)c2ccc3ccc(N4CCC5(CCOCC5)CC4)cc3n2)C1` [Example 15, N-{4-[(3S,5R)-3-Amino-5-methylpiperidin-1-yl]pyridin-3-yl}-7-(3-oxa-9-azaspiro[5.5]undec-9-yl)quinoline-2-carboxamide], the IC50 is no more than 10 nM at Pim-1, no more than 10 nM on Pim-3, 50 to 250 nM in the test with pBAD in KMS.12.BM cells and 100 to 1000 nM at Pim-2.

With `C[C@H]1CN(c2ccncc2NC(=O)c2ccc3ncc(N4CCOCC4)cc3n2)C[C@@H](N)[C@@H]1O` [Example 8, N-{4-[(3R,4R,5S)-3-Amino-4-hydroxy-5-methylpiperidin-1-yl]pyridin-3-yl}-7-morpholin-4-yl-1,5-naphthyridine-2-carboxamide], the half-maximal inhibitory concentration (IC50) is no more than 10 nM on Pim-1, no more than 10 nM at Pim-3, no more than 50 nM with pBAD in KMS.12.BM cells and 100 to 1000 nM on Pim-2.

Take `N[C@@H]1CN(c2ccncc2NC(=O)c2ccc3ncc(N4CCC5(CCOCC5)CC4)cc3n2)C[C@H](C2CC2)[C@H]1O` [Example 40, N-{4-[(3R,4R,5S)-3-Amino-5-cyclopropyl-4-hydroxypiperidin-1-yl]pyridin-3-yl}-7-(3-oxa-9-azaspiro[5.5]undec-9-yl)-1,5-naphthyridine-2-carboxamide]: the IC50 on Pim-1 is no more than 10 nM; at Pim-3 it was no more than 10 nM; on Pim-2, 100 to 1000 nM.

`C[C@@H]1C[C@H](N)CN(c2ccncc2NC(=O)c2ccc3ccc(N4CCC(C(F)(F)F)C4)cc3n2)C1` (stereo partly drawn) [Example 29, N-{4-[(3S,5R)-3-Amino-5-methylpiperidin-1-yl]pyridin-3-yl}-7-[3-(trifluoromethyl)pyrrolidin-1-yl]quinoline-2-carboxamide]: the IC50 was no more than 10 nM on Pim-1, no more than 10 nM on Pim-3 and 100 to 1000 nM at Pim-2.

`C[C@H]1CN(c2ccncc2NC(=O)c2ccc3ccc(N4CCC(C(F)(F)F)C4)cc3n2)C[C@@H](N)[C@@H]1O` (stereo partly drawn) [Example 28, N-{4-[(3R,4R,5S)-3-Amino-4-hydroxy-5-methylpiperidin-1-yl]pyridin-3-yl}-7-[3-(trifluoromethyl)pyrrolidin-1-yl]quinoline-2-carboxamide]: the figures for the IC50 at Pim-1, on Pim-3 and at Pim-2 were no more than 10 nM, no more than 10 nM and 100 to 1000 nM, respectively.
